Results published in PubChem BioAssay (NCI).
Where “and” joins values, the source holds several entries; their conditions need not be identical. Identical values can stand only once.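 Five concentrations, 48 hours, 96-well plates. At the GI50, growth is halved. TGI is the concentration that stops growth completely.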

Key:
Assay in all cases: DTP human tumour cell line panel, 48 h
OVCAR-8 ovarian = tested on: OVCAR-8 ovarian
SF-295 CNS = tested on: SF-295 CNS
LOX IMVI melanoma = tested on: LOX IMVI melanoma
HCT-116 colon = tested on: HCT-116 colon
NCI-H23 lung = tested on: NCI-H23 lung
A498 renal = tested on: A498 renal
HCC-2998 colon = tested on: HCC-2998 colon
UACC-62 melanoma = tested on: UACC-62 melanoma
CCRF-CEM leukemia = tested on: CCRF-CEM leukemia
UO-31 renal = tested on: UO-31 renal

Compound | GI50 (OVCAR-8 ovarian) | TGI (OVCAR-8 ovarian) | GI50 (SF-295 CNS) | TGI (SF-295 CNS) | GI50 (LOX IMVI melanoma) | TGI (LOX IMVI melanoma) | GI50 (HCT-116 colon) | TGI (HCT-116 colon) | GI50 (NCI-H23 lung) | TGI (NCI-H23 lung) | GI50 (A498 renal) | TGI (A498 renal) | GI50 (HCC-2998 colon) | TGI (HCC-2998 colon) | GI50 (UACC-62 melanoma) | TGI (UACC-62 melanoma) | GI50 (CCRF-CEM leukemia) | TGI (CCRF-CEM leukemia) | GI50 (UO-31 renal) | TGI (UO-31 renal)
CN(C)c1ccc(C(=C2C=CC(=[N+](C)C)C=C2)c2ccccc2Cl)cc1 | 0.306 µM | 1.66 µM | 0.0894 µM | 0.401 µM | 0.224 µM | 0.836 µM | 0.155 µM | 0.605 µM | 0.282 µM | 1.28 µM | 0.289 µM | 1.04 µM | 0.354 µM | 1.28 µM | 0.323 µM | 1.43 µM | 0.402 µM | 5.06 µM | 0.762 µM | 6.49 µM
CCCCCCCCCCCCCCNCC(OCC)OCC | – | 40.4 µM | – | 30.6 µM | – | 32.5 µM | – | 23.1 µM | – | 30.5 µM | – | 28.5 µM | – | 27.3 µM | – | 33 µM | – | 24.5 µM | – | 22.9 µM
CCCC#CCOC(=O)c1cc([N+](=O)[O-])cc([N+](=O)[O-])c1 | – | > 100 µM | – | > 100 µM | – | > 100 µM | – | > 100 µM | – | > 100 µM | – | > 100 µM | – | > 100 µM | – | > 100 µM | – | > 100 µM | – | > 100 µM
O=C(NC(=O)c1cc2cc(Br)cc(Br)c2oc1=O)Oc1ccccc1 | – | > 100 µM | – | > 100 µM | – | > 100 µM | – | > 100 µM | – | > 100 µM | – | > 100 µM | – | > 100 µM | – | > 100 µM | – | > 100 µM | – | > 100 µM
CCN(CC)c1ccc(/C=C/C=C(/C#N)C(N)=S)cc1 | 8.07 µM | > 100 µM | 27.6 µM | > 100 µM | 4.71 µM | 28.3 µM | 3.58 µM | 17.7 µM | 8.45 µM | > 100 µM | 10.9 µM | 58.9 µM | 6.46 µM | > 100 µM | 15.2 µM | 48.8 µM | 3.16 µM | 71.8 µM | 4.39 µM | > 100 µM
CC12CCC(O)CC1=CCC1C2CCC2(C)C(c3cccnc3)=CCC12 (centres undefined) | > 100 µM | > 100 µM | 56 µM | > 100 µM | > 100 µM | > 100 µM | > 100 µM | > 100 µM | > 100 µM | > 100 µM | > 100 µM | > 100 µM | > 100 µM | > 100 µM | > 100 µM | > 100 µM | > 100 µM | > 100 µM | > 100 µM | > 100 µM
COc1ccc(-c2nnc(Nc3nc(O)c(C4=c5cc(F)ccc5=NC4=O)s3)o2)cc1 | 54.4 µM | > 100 µM | 29.5 µM | > 100 µM | 40 µM | > 100 µM | 20 µM | 42.7 µM | 67.7 µM | > 100 µM | 41.7 µM | > 100 µM | 84.3 µM | > 100 µM | 35.1 µM | > 100 µM | 28.8 µM | > 100 µM | 37.9 µM | > 100 µM
CC(OC(=O)N(N(CCCl)S(C)(=O)=O)S(C)(=O)=O)c1ccc([N+](=O)[O-])cc1 (centres undefined) | > 100 µM | > 100 µM | 34.5 µM | > 100 µM | 51.2 µM | > 100 µM | > 66 µM | > 100 µM | 39.1 µM | > 100 µM | 1.7 µM | 43.3 µM | 56 µM | > 100 µM | 29.6 µM | > 100 µM | 0.179 µM | 15.9 µM | > 100 µM | > 100 µM
O=C1N[C@H]2[C@H](O)[C@H](O)[C@@H](O)[C@H](O)[C@@H]2c2cc3c(c(O)c21)OCO3 | 0.231 µM and 0.225 µM | 1.89 µM and 0.195 µM | 0.346 µM and 0.495 µM | 3.51 µM and 0.352 µM | 0.147 µM and 0.196 µM | – | 0.129 µM and 0.253 µM | 0.682 µM and 1.42 µM and 0.144 µM | 0.241 µM and 0.375 µM | 0.712 µM and 2.18 µM and 0.677 µM | 0.23 µM and 0.796 µM | – | 0.0618 µM | 0.279 µM and 0.148 µM | 0.246 µM and 0.412 µM | – | 0.137 µM | 0.767 µM and 0.485 µM | 0.333 µM and 0.522 µM | 2.78 µM and 0.398 µM
COC(=O)/C(=C\c1c(-c2ccccc2)[nH]c2ccccc12)S(C)(=O)=O | 6.29 µM | > 100 µM | 3.13 µM | 19.9 µM | 5.07 µM | 17.6 µM | 4.2 µM | 21.4 µM | 7.95 µM | 41.8 µM | 6.56 µM | 21.3 µM | 8.78 µM | 22.4 µM | 3.34 µM | 17 µM | 7.62 µM | > 100 µM | 5.49 µM | 28.7 µM
Nc1nc(-c2cc(-c3cccc4ccccc34)nc(N)n2)cc(-c2cccc3ccccc23)n1 | – | > 100 µM | – | > 100 µM | – | > 100 µM | – | > 100 µM | – | > 100 µM | – | > 100 µM | – | > 100 µM | – | > 100 µM | – | > 100 µM | – | > 100 µM
CCN(CC)CCCNc1[nH]ncc2c(C)c3nc4ccccc4c3cc12 | 0.926 µM | 4.85 µM and 4.58 µM | 1.3 µM | 5.27 µM and 11.8 µM | 0.328 µM | 1.58 µM and 1.18 µM | 0.412 µM and 0.421 µM | 2.32 µM and 3.31 µM | 0.583 µM | 1.99 µM and 3.72 µM | – | 4.73 µM | 0.375 µM | 2.12 µM and 3.06 µM | – | 1.96 µM and 2.08 µM | 0.132 µM | – | 3.71 µM | 14.6 µM and 22 µM
Cc1ncc(-c2ccnc(Nc3ccc(S(C)(=O)=O)cc3)n2)n1C(C)C | 1.33 µM | > 10 µM | 1.67 µM | 6.75 µM | 0.537 µM | 9.94 µM | 0.275 µM | > 10 µM | 1.79 µM | 7.17 µM | 0.647 µM | 2.55 µM | 1.35 µM | 5.59 µM | 1.45 µM | 3.64 µM | 0.987 µM | > 7.12 µM | 1 µM | > 10 µM
